# Results taken from ChEMBL document CHEMBL1201862, “PubChem BioAssay data set” (2004).
# Activity calls are given as the source filed them.
# Legend:
# [1] = molecular target: T1, Caspase-3 (Homo sapiens, UniProt P42574); type: functional;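 note: Dose-response selectivity test against caspase-3 for candidate inhibitors of sentrin-specific proteases (SENPs)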
# T1 sequence (P42574 whole entry): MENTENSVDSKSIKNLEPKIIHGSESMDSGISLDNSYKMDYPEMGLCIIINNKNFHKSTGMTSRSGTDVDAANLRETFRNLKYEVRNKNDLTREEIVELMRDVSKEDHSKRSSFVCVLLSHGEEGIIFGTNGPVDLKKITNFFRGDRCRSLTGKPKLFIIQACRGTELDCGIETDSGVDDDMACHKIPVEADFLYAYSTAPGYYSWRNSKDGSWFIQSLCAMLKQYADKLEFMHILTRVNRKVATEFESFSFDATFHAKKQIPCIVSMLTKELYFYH
# [2] = molecular target: T2, Sentrin-specific protease 8 (Homo sapiens, UniProt Q96LD8); type: functional;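 note: luminescence read-out of SENP8 inhibition, dose-response confirmation following an ultra-high-throughput screen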
# T2 sequence (Q96LD8 whole entry): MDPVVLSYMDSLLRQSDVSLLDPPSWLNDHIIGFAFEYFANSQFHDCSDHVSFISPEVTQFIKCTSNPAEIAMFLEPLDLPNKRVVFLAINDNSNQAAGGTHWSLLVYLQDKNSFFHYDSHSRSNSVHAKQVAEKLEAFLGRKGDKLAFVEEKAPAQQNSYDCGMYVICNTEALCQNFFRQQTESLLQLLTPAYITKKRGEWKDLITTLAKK
# [3] = molecular target: T3, Sentrin-specific protease 6 (Homo sapiens, UniProt Q9GZR1); type: functional;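 note: Luminescence-based dose-response confirmatory assay of SENP6 inhibition, following up an ultra-high-throughput screen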
# T3 sequence (Q9GZR1 whole entry): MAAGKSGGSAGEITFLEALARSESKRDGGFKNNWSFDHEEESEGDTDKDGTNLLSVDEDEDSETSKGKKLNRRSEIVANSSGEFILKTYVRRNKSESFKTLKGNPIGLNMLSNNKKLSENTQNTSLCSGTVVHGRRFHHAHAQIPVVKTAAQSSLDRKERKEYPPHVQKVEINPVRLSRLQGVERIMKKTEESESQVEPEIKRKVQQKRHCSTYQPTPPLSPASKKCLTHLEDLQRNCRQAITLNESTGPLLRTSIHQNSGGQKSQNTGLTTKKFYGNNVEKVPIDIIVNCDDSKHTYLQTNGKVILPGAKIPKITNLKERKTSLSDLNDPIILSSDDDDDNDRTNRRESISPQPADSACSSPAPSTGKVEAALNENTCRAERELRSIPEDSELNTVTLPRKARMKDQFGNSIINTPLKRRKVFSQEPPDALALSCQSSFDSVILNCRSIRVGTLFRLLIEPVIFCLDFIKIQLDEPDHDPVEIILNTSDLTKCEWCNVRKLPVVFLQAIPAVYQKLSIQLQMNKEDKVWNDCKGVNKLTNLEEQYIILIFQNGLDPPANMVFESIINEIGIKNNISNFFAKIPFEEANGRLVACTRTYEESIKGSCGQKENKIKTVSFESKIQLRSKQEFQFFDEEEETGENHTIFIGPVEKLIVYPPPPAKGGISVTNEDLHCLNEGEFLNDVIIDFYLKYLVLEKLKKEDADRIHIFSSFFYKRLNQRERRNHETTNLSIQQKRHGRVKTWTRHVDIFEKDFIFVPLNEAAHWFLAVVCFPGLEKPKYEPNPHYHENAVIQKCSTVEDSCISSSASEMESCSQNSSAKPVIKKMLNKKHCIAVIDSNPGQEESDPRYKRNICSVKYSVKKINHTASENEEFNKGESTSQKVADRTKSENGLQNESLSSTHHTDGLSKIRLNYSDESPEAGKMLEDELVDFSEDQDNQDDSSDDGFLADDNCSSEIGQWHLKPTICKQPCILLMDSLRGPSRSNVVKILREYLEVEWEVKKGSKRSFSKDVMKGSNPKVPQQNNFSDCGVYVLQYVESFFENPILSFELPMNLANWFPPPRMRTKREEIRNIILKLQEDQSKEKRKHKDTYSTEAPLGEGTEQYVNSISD
# [4] = molecular target: T4, Sentrin-specific protease 7 (Homo sapiens, UniProt Q9BQF6); type: functional;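 note: Luminescence-based dose-response confirmation of ultra-high-throughput screening hits, measuring inhibition of SENP7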
# T4 sequence (Q9BQF6 whole entry): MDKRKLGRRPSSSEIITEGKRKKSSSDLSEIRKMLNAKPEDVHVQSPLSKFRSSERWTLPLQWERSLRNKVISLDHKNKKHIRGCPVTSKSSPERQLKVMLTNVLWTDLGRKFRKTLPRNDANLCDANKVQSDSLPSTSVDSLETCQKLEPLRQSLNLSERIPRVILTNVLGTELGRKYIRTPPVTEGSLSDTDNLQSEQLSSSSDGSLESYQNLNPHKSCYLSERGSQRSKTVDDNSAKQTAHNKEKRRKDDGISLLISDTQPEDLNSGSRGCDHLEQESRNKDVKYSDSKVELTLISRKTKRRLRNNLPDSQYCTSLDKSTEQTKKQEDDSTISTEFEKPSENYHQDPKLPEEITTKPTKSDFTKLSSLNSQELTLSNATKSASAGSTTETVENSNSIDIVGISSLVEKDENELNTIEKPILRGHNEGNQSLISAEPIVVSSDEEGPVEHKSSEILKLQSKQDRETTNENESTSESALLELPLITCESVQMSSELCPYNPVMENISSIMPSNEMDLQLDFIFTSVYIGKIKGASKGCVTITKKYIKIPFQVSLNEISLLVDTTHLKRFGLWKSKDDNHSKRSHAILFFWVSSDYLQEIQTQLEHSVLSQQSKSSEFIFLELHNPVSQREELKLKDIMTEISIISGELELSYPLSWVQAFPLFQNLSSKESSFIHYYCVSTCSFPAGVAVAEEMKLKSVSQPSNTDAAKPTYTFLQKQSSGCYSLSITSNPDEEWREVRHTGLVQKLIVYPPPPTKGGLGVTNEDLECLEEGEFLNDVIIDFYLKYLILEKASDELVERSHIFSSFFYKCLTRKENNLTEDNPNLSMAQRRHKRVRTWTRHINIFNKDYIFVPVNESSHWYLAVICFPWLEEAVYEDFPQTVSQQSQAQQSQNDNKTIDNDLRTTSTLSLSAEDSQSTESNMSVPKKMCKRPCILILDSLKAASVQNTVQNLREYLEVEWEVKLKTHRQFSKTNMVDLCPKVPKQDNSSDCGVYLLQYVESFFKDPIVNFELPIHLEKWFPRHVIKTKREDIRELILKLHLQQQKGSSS
# [5] = intracellular Trypanosoma cruzi inhibitors in host cells – cell-based, plate reader, cherry-pick samples, set 3, dose response (AID 651818); type: functional;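 note: compounds incubated with infected cells for about four days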
# [6] = molecular target: SWI/SNF-related matrix-associated actin-dependent regulator of chromatin subfamily A member 2 (Homo sapiens, UniProt P51531); test: Luminescence-based cell-based high throughput dose response assay to identify activators of the function of SWI/SNF related, matrix associated, actin dependent regulator of chromatin, subfamily a, member 2 (SMARCA2, BRM).; type: functional
# SWI/SNF-related matrix-associated actin-dependent regulator of chromatin subfamily A member 2, sequence (P51531 whole entry): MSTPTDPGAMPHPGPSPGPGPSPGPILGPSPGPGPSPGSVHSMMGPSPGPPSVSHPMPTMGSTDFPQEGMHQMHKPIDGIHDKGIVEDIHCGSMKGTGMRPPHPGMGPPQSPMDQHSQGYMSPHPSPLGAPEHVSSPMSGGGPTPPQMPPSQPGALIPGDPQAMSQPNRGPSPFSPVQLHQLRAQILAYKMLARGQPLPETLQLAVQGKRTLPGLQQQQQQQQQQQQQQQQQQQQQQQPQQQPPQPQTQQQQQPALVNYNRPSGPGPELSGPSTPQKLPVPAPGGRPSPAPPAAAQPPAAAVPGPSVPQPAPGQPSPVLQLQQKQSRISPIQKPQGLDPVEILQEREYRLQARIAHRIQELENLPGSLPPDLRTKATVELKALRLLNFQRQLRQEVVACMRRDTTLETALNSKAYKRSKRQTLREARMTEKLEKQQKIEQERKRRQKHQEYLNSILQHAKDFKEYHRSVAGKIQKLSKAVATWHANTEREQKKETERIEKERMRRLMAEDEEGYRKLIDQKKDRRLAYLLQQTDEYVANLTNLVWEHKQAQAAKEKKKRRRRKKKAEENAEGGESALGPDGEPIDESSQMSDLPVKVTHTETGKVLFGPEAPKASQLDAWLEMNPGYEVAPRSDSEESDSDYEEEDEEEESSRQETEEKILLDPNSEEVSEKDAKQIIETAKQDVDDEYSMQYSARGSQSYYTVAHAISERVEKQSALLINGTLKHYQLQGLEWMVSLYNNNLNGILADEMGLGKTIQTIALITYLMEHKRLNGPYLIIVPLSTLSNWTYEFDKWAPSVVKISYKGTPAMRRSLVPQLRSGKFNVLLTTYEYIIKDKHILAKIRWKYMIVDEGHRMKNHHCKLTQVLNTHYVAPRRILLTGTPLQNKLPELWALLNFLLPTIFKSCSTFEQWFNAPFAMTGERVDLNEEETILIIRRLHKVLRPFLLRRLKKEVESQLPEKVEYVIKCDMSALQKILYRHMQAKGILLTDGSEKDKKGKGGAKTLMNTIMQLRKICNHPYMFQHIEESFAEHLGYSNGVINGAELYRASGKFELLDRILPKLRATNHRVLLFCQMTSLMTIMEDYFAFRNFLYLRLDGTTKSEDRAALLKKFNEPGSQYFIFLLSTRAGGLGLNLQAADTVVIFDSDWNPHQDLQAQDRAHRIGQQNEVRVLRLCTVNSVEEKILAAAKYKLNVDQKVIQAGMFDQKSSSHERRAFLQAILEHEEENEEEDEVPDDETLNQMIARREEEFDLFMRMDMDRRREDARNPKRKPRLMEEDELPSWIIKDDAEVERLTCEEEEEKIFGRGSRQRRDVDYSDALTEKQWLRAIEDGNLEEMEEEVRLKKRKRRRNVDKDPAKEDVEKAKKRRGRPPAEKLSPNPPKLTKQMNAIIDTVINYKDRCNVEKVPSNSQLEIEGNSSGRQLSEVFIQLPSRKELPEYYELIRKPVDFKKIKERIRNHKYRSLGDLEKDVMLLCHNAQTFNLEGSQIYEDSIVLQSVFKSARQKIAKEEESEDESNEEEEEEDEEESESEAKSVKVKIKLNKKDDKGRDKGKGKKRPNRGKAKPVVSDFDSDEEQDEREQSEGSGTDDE
# [7] = Counterscreen for activators of the function of SWI/SNF related, matrix associated, actin dependent regulator of chromatin, subfamily a, member 2 (SMARCA2, BRM): Luminescence-based cell-based high throughput dose response assay to identify non-selective compounds using the VP16 reporter assay.; type: functional
# [8] = reduced cellular PGC1a acetyl-lysine signal – cell-based, cherry-picked samples, dose response (AID 720514); type: functional;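 note: potency may reflect raised or lowered acetylation signal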
# [9] = molecular target: Nonstructural protein 1 (Influenza A virus, UniProt Q194T2); type: functional, Influenza A virus (A/California/07/2009(H1N1))
# Nonstructural protein 1, sequence (Q194T2 whole entry): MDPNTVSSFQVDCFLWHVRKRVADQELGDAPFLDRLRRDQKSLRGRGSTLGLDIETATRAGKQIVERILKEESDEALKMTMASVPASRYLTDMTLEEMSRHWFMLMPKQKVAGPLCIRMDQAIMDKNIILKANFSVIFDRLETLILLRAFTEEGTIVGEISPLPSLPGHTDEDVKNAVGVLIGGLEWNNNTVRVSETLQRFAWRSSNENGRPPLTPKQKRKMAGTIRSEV
# [10] = growth inhibition of PfATP4-mutant resistant parasites – NITD609-resistant line, SYBR Green, dry powder, dose response (AID 1159571); type: functional, cell-based;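 note: parasites synchronized at ring stage by sorbitol before testing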
# [11] = Dd2 malaria parasite growth inhibition potency – SYBR Green, dry powder samples, dose response (AID 1159566); type: functional, cell-based;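 note: potency for growth inhibition with lower SYBR green DNA signal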
# [12] = growth inhibition of yeast DHODH-expressing 3D7 parasites – SYBR Green, dry powder samples, dose response (AID 1159570); type: functional, cell-based;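 note: parasite growth measured after 72 hours of compound exposure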
# [13] = P. falciparum Dd2 growth inhibitors, dose response, SYBR Green, cherry-picked samples (AID 1159567); type: functional, cell-based
# [14] = toxicity to human HepG2 hepatoma cells – cell-based, plate reader, dry powder samples, cytotoxicity control, dose response (AID 1159569); type: functional;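 note: inhibitor potency with signal falling toward the positive control level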
# [15] = molecular target: Paired box protein Pax-8 (Homo sapiens, UniProt Q06710); test: PAX8 transcriptional activity inhibition in RMG-I – RMG-I cells, luciferase, cherry-pick, dose response (AID 687027); type: functional, cell-based;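 note: luciferase reporter driven by Pax8 target thyroperoxidase promoter measured by SteadyGlo luminescence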
# Paired box protein Pax-8, sequence (Q06710 whole entry): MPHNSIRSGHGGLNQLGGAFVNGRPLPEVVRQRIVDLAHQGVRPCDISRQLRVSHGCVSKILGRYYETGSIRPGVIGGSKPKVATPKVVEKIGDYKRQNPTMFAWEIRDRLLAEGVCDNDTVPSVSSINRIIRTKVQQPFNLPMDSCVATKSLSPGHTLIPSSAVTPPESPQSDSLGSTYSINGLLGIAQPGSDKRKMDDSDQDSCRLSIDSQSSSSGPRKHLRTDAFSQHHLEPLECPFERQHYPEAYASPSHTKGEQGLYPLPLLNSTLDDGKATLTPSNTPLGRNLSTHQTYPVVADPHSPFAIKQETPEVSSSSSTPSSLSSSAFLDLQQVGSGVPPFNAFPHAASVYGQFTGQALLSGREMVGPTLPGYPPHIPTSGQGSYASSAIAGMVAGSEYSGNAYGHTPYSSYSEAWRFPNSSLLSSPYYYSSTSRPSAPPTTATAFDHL
# [16] = system: INS1; test: INS-1E survival protection against cytokine death – cell-based, luminescence, retest, dose response (AID 449756); type: functional; conditions: Rattus norvegicus;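 note: cell death triggered by IL-1 beta plus TNF-alpha plus IFN-gamma mixture; protective hits raise ATP signal compared with cytokine alone wells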
# [17] = Luminescence Cell-Based Dose Retest to Confirm Inhibitors of Cancer Stem Cells. [Related pubchem assays (depositor defined):AID2717, AID2721]; type: functional; conditions: Homo sapiens
# [18] = A cytotoxicity screen of small molecule inhibitors of the PhoP region in Salmonella typhi identified in the primary screen. [Related pubchem assays: 1850, 1864, 1985 ]; type: functional
# [19] = blockers of HIV-1 envelope-mediated cell-cell fusion – cherry-pick, dose response (AID 652057); type: functional, cell-based
# [20] = blockers of HIV-1 ZM109 envelope-driven cell-cell fusion – HeLa effector, CEM target cells, luciferase, cherry-pick, dose response (AID 652058); type: functional, cell-based;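 note: luciferase signal from HIV-1 Env mediated cell-cell fusion of effector and target cells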
# [21] = HIV-1 AD8 envelope cell-cell fusion blockers – cherry-pick, dose response (AID 652062); type: functional, cell-based;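 note: luciferase signal from cell-cell fusion driven by HIV-1 clade B AD8 Env; potency is for inhibitors of fusion seen as a drop in luminescence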
smiles,measurement,setting,value
COc1ccccc1CNC(=O)COc1ccccc1C(=O)c1cnn(-c2ccccc2)c1,IC50,[1],21.9 µM (active)
same,IC50,[2],24.3 µM (active)
same,IC50,[3],26.1 µM (active)
same,IC50,[4],11.4 µM (active)
C[C@@H]1CN([C@H](C)CO)C(=O)c2cccc(NC(=O)Nc3cccc4ccccc34)c2O[C@@H]1CN(C)Cc1ccc(C(F)(F)F)cc1,AC50,[5],6.48 µM (active)
COCn1c(COc2ccccc2)nc2ccccc21,EC50,[6],> 91.2 µM (inactive)
same,EC50,[7],> 91.2 µM (inactive)
C=C1C(=O)OC2C1CCC(C)C1C=CC(=O)C12C (centres undefined),EC50,[6],> 91.2 µM (inactive)
same,EC50,[7],> 91.2 µM (inactive)
COc1ccc(-c2cnc3c(c2)C(=O)N([C@H](C)CO)C[C@@H](C)[C@@H](CN(C)C(=O)Nc2c(C)noc2C)O3)cc1,AC50,[8],12.2 µM (active)
CCCCNc1c([N+](=O)[O-])ccc2c1=NC1(CCCCC1)[N+]=2[O-],IC50,[9],43.8 µM (active)
C[C@@H]1CN([C@@H](C)CO)S(=O)(=O)c2ccc(/C=C/c3ccccc3)cc2O[C@H]1CN(C)Cc1cccnc1,AC50,[10],2.15 µM (active)
same,AC50,[11],1.63 µM (active)
same,AC50,[12],1.6 µM (active)
same,AC50,[13],1.93 µM (active)
same,AC50,[14],56.2 µM (active)
COc1ccc(S(=O)(=O)Nc2ccc3c(c2)C(=O)N([C@H](C)CO)C[C@H](C)[C@@H](CN(C)Cc2ccc(Cl)c(Cl)c2)OCCCC[C@@H](C)O3)cc1,AC50,[5],2.64 µM (active)
same,AC50,[15],10.2 µM (active)
COc1cc(Cl)c(NC2=CC(=O)C(=O)c3ccccc32)c(OC)c1,IC50,[1],28.8 µM (active)
same,AC50,[16],3.33 µM (active)
same,AC50,[15],4.49 µM (active)
same,IC50,[2],14.5 µM (active)
same,AC50,[17],1.15 µM (active)
same,IC50,[3],9.11 µM (active)
same,IC50,[4],15.6 µM (active)
C[C@@H]1CN([C@H](C)CO)C(=O)Cc2cc(NC(=O)Nc3ccc4c(c3)OCO4)ccc2O[C@@H]1CN(C)Cc1ccc(C(=O)Nc2ccccc2N)cc1,AC50,[5],2.04 µM (active)
COc1ccc(S(=O)(=O)N(C)C[C@@H]2Oc3cc(-c4ccccc4OC)ccc3S(=O)(=O)N([C@H](C)CO)C[C@H]2C)cc1,AC50,[10],0.766 µM (active)
same,AC50,[11],0.653 µM (active)
same,AC50,[12],0.894 µM (active)
same,AC50,[13],1.12 µM (active)
same,AC50,[14],> 100 µM (inactive)
Cc1[nH]n(-c2ccccc2)c(=O)c1N=Nc1ccc(F)cc1,IC50,[9],84.7 µM (active)
CC1CCC[C@H](O)CCCCCc2cc(O)cc(O)c2C(=O)O1 (some centres undefined),AC50,[8],35.9 µM (active)
same,EC50,[18],> 50 µM (active)
C/C=C/c1ccc2c(c1)[C@H]1[C@H](CCN1C(=O)c1cccc(F)c1)[C@H](CO)N2,AC50,[10],1.64 µM (active)
same,AC50,[11],1.05 µM (active)
same,AC50,[12],1.46 µM (active)
same,AC50,[13],1.54 µM (active)
same,AC50,[14],> 100 µM (inactive)
C[C@H]1CN([C@@H](C)CO)C(=O)Cc2cc(NC(=O)Nc3ccc(C(F)(F)F)cc3)ccc2O[C@@H]1CN(C)CC1CCCCC1,AC50,[5],3.54 µM (active)
CC(C)(C)[S@@+]([O-])N1Cc2cc(C(=O)NCCN3CCCCC3)nc(-c3cccc(-c4ccc(C#N)cc4)c3)c2[C@H]1CCO,AC50,[10],2.9 µM (active)
same,AC50,[11],2.37 µM (active)
same,AC50,[12],3.54 µM (active)
same,AC50,[13],2.79 µM (active)
same,AC50,[14],63.2 µM (active)
COc1ccc(CNC(=O)N(C)C[C@@H]2OCc3ccccc3-c3c(n(C)c4ccccc34)C(=O)N([C@H](C)CO)C[C@@H]2C)cc1,AC50,[19],< 0.235 µM (active)
same,AC50,[20],< 0.235 µM (active)
same,AC50,[21],< 0.235 µM (active)
C[C@H](CO)N1C[C@H](C)[C@@H](CN(C)Cc2ccc(Cl)c(Cl)c2)Oc2c(NC(=O)Nc3cccc4ccccc34)cccc2C1=O,AC50,[5],9.77 µM (active)
OC[C@@H]1CC[C@@H]2O[C@H](CCc3ccc(-c4ccccc4)cc3)[C@H](n3cc(-c4ccccc4)nn3)C[C@@H]2O1,AC50,[10],0.885 µM (active)
same,AC50,[11],0.555 µM (active)
same,AC50,[12],1.38 µM (active)
same,AC50,[13],1.34 µM (active)
same,AC50,[14],> 100 µM (inactive)
